Source: PMC10934261, “Designing Potent Anti-Cancer Agents: Synthesis and Molecular Docking Studies of Thieno[2,3-d][1,2,4]triazolo[1,5-a]pyrimidine Derivatives” (Molecules, 2024)

What was measured:
[1] = tested on: human breast MCF-7 cancer cell line; assay: In vitro cytotoxic screening (MTT assay), MCF-7; assay type: cell-based; conditions: for Percentage cytotoxicity on MCF-7: average ± standard deviation
Experimental: (§1) Using human breast MCF-7, colorectal HCT-116, and prostate PC-3 cancer cell lines, preliminary antiproliferative effectiveness of cyclopenta[4,5]thieno[2,3-d][1,2,4]triazolo[1,5-a]pyrimidin-9(6H)-ones 4–16 was established in vitro through MTT assay at different concentrations (100, 50, 25 and 12.5 μM) (Figure 2).
(§2) The cell lines were obtained from Karolinska Center, Department of Oncology and Pathology, Karolinska Institute and Hospital, Stockholm, Sweden. as follows: human breast MCF-7, colorectal HCT-116 and prostate PC-3 cancer cell lines and human skin normal BJ-1 cell line. Exponentially, cells were cultured at a concentration of 10^4 cells/well for 24 h, afterwards fresh medium containing different concentrations of the tested samples was added. Serial two-fold dilution of the tested samples were added using a multichannel pipette. Moreover, all cells were cultivated at 37 °C, 5% CO2 and 95% humidity. Also, incubation of control cells occurred at 37 °C. However, after incubation for 24 h different concentrations of samples (100, 50, 25 and 12.5 µM) were added and the incubation was continued for 48 h, then crystal violet solution 1% was added to each well for 0.5 h to examine the presence of viable cells. After rinsing the wells using water until stain free, 30% glacial acetic acid was added to all wells with shaking the plates on a Microplate reader (TECAN, Inc.) to measure the absorbance at a wavelength of 490 nm. The cytotoxicity was estimated by IC50 in μM, which is the concentration that inhibits 50% of growth of cancer cells. […]
(§3) 1.1. In vitro cytotoxic screening
(§4) The cell lines were obtained from Karolinska Center, Department of Oncology and Pathology, Karolinska Institute and Hospital, Stockholm, Sweden. as follows: human breast MCF-7, colorectal HCT-116 and prostate PC-3 cancer cell lines and human skin normal BJ-1 cell line. Exponentially, cells were placed in 10^4 cells/ well for 24 h, and then add fresh medium which containing different concentration of the tested sample. Serial two-fold dilution of the tested sample were added using a multichannel pipette. Moreover, all cells were cultivated at 37 °C, 5% CO2 and 95% humidity. Also, incubation of control cells occurred at 37 °C. However, after incubation for 24 h different concentrations of sample (100, 50, 25 and 12.5 µM) were added and continued the incubation for 48 h, then, add the crystal violet solution 1% to each well for 0.5 h to examine viable cells. Rinse the wells using water until no stain. After that, add 30% glacial acetic acid to all wells with shaking plates on Microplate reader (TECAN, Inc.) to measure the absorbance, using a test wavelength of 490 nm. Besides, compare the treated samples with the control cell. The cytotoxicity was estimated by IC50 in (μ M), the concentration that inhibits 50% of growth of cancer cell. […]
(§5) The molecular docking simulation of the promising in vitro screened cyclopenta[4,5]thieno[2,3-d][1,2,4]triazolo[1,5-a]pyrimidin-9(6H)-ones 10b and 10e against EGFR and PI3K was done using the Molecular Operating Environment software (MOE-Dock) version 2014.0901. The co-crystallized structures of EGFR and PI3K kinases complexed with their native ligands, erlotinib and quinolone LXX, were downloaded from the protein data bank (PDB codes: 1M17 and 3L54, respectively). All minimizations were performed using MOE until an RMSD gradient of 0.05 kcal∙mol−1Å−1 with MMFF94x force field and the partial charges were automatically calculated. Preparation of the enzyme structures was done for molecular docking using Protonate 3D protocol with the default options in MOE. London dG scoring function and Triangle Matcher placement method were used in the docking protocol. Initially, the original ligands were re-docked into the active binding site of EGFR and PI3K kinases to assess the root-mean-square deviation values. Then, the docking studies of the newly targeted […]

[2] = tested on: human colorectal HCT-116 cancer cell line; assay: In vitro cytotoxic screening (MTT assay), HCT-116; assay type: cell-based; conditions: average ± standard deviation
Experimental: as §1, §2, §3, §4, §5

[3] = tested on: human prostate PC-3 cancer cell line; assay: In vitro cytotoxic screening (MTT assay), PC-3; assay type: cell-based; conditions: average ± standard deviation
Experimental: as §1, §2, §3, §4, §5

melting point [°C]	Structure (SMILES)	Percentage cytotoxicity on MCF-7 ([1]; 12.5 µM) [%]	Percentage cytotoxicity on MCF-7 ([1]; 25 µM) [%]	Percentage cytotoxicity on MCF-7 ([1]; 50 µM) [%]	Percentage cytotoxicity on MCF-7 ([1]; 100 µM) [%]	Percentage cytotoxicity on HCT-116 ([2]; 12.5 µM) [%]	Percentage cytotoxicity on HCT-116 ([2]; 25 µM) [%]	Percentage cytotoxicity on HCT-116 ([2]; 50 µM) [%]	Percentage cytotoxicity on HCT-116 ([2]; 100 µM) [%]	Percentage cytotoxicity on PC-3 ([3]; 12.5 µM) [%]	Percentage cytotoxicity on PC-3 ([3]; 25 µM) [%]	Percentage cytotoxicity on PC-3 ([3]; 50 µM) [%]	Percentage cytotoxicity on PC-3 ([3]; 100 µM) [%]	IC50 ([1]; Homo sapiens, MCF7, MCF-7, 48 h incubation, mean of three values, read-out: IC50 (Mean ± SD) MCF-7) [µM]
180 to 182	COc1ccc(-c2nn3c(=O)c4c5c(sc4nc3[nH]2)CCC5)cc1 [Compound 10d, 2-(4-Methoxyphenyl)-7,8-dihydro-3H-cyclopenta[4,5]thieno[2,3-d][1,2,4]triazolo[1,5-a]pyrimidin-9(6H)-one]	12.7±2.1	35.1±5.9	47.3±8.5	53.1±6.1	0.0±0.005	0.0±0.005	0.0±0.005	14.3±4.3	9.1±6.3	21.6±0.06	26.9±1.2	36.4±3.1	–
> 300	O=c1c2c3c(sc2nc2[nH]cnn12)CCC3 [Compound 4, 7,8-Dihydro-3H-cyclopenta[4,5]thieno[2,3-d][1,2,4]triazolo[1,5-a]pyrimidin-9(6H)-one]	31.5±5.7	23.6±3.2	35.5±4.4	34.8±4.1	0.0±0.005	0.0±0.005	0.0±0.005	9.1±2.0	0.0±0.005	0.0±0.005	0.0±0.005	11.3±3.7	–
> 300	COc1ccc(-c2nn3c(=O)c4c5c(sc4nc3n2[C@@H]2O[C@H](COC(C)=O)[C@@H](OC(C)=O)[C@H](OC(C)=O)[C@H]2OC(C)=O)CCC5)cc1 [Compound 16, 2-(4-Methoxyphenyl)-3-(2,3,4,6-tetra-O-acetyl-β-D-glocopyranosyl)-7,8-dihydro-3H-cyclopenta[4,5]thieno[2,3-d][1,2,4]triazolo[1,5-a]pyrimidin-9(6H)-one]	0.0±0.005	0.0±0.005	0.0±0.005	29.5±1.6	0.0±0.005	0.0±0.005	0.0±0.005	1.0±0.5	0.0±0.005	0.0±0.005	0.0±0.005	14.5±1.6	–
> 300	CC(=O)OC[C@@H](OC(C)=O)[C@@H](OC(C)=O)[C@H](OC(C)=O)c1nc2nc3sc4c(c3c(=O)n2[nH]1)CCC4 [Compound 12d, (1R,2S,3R)-1-(9-oxo-1,7,8,9-tetrahydro-6H-cyclopenta[4,5]thieno[2,3-d][1,2,4]triazolo[1,5-a]pyrimidin-2-yl)butane-1,2,3,4-tetrayl tetraacetate]	0.0±0.005	0.0±0.005	0.0±0.005	26.9±4.8	0.0±0.005	0.0±0.005	0.0±0.005	9.5±1.2	0.0±0.005	0.0±0.005	0.0±0.005	14.1±6.2	–
93 to 95	Cc1nn2c(=O)c3c4c(sc3nc2[nH]1)CCC4 [Compound 5, 2-Methyl-7,8-dihydro-3H-cyclopenta[4,5]thieno[2,3-d][1,2,4]triazolo[1,5-a]pyrimidin-9(6H)-one]	0.0±0.005	0.0±0.005	0.0±0.005	18.9±10	0.0±0.005	0.0±0.005	0.0±0.005	0.0±0.005	0.0±0.005	0.0±0.005	0.0±0.005	0.0±0.005	–
> 300	O=c1c2c3c(sc2nc2[nH]c(=S)[nH]n12)CCC3 [Compound 9, 2-Thioxo-2,3,7,8-tetrahydro-1H-cyclopenta[4,5]thieno[2,3-d][1,2,4]triazolo[1,5-a]pyrimidin-9(6H)-one]	0.0±0.005	28.4±2.6	32.7±2.4	62.5±7.6	0.0±0.005	0.0±0.005	0.0±0.005	0.0±0.005	3.7±1.3	6.3±0.9	7.8±1.3	19.3±3.5	71.8 ± 1.05
> 300	O=c1c2c3c(sc2nc2nc([C@@H](O)[C@H](O)[C@H](O)CO)[nH]n12)CCC3 [Compound 11d, 2-((1R,2S,3R)-1,2,3,4-tetrahydroxybutyl)-1,6,7,8-tetrahydro-9H-cyclopenta[4,5]thieno[2,3-d][1,2,4]triazolo[1,5-a]pyrimidin-9-one]	0.0±0.005	29.2±2.9	47.9±2.2	50.5±0.2	0.0±0.005	0.0±0.005	0.0±0.005	10.0±3.4	5.4±6.8	6.8±0.3	9.7±0.5	25.3±3.8	–
> 300	CC(=O)OC[C@@H](OC(C)=O)[C@@H](OC(C)=O)[C@H](OC(C)=O)[C@@H](OC(C)=O)c1nc2nc3sc4c(c3c(=O)n2[nH]1)CCC4 [Compound 12a, (1S,2R,3R,4R)-1-(9-oxo-1,7,8,9-tetrahydro-6H-cyclopenta[4,5]thieno[2,3-d][1,2,4]triazolo[1,5-a]pyrimidin-2-yl)pentane-1,2,3,4,5-pentayl pentaacetate]	–	–	–	–	–	–	–	–	–	–	–	–	–
> 300	N#CCc1nn2c(=O)c3c4c(sc3nc2[nH]1)CCC4 [Compound 7, 2-(9-Oxo-6,7,8,9-tetrahydro-3H-cyclopenta[4,5]thieno[2,3-d][1,2,4]triazolo[1,5-a]pyrimidin-2-yl)acetonitrile]	–	–	–	–	–	–	–	–	–	–	–	–	–
